Results published in patent publication US20250270227A1, “CAMPTOTHECIN DERIVATIVE, AND PHARMACEUTICAL COMPOSITION AND USE THEREOF” (SIMCERE ZAIMING PHARMACEUTICAL CO., LTD., priority 2021, published 2025).
Where two headings read alike, the source gives them in different places.

Legend:
[1] = Plasma protein binding rate (equilibrium dialysis); assay type: in vitro ADME, mouse; settings: pH 7.4
Protocol: The protein binding rates of the compounds of the present disclosure in human and mouse plasma were determined by the following experimental method.
• 1. Human plasma (BioIVT), CD-1 mouse plasma (BiolVT) • 2. Na2HPO4 (Sigma S5136-500G) • 3. NaH2PO4 (Sigma 53139-500G) • 4. NaCl (Sigma S5886-IKG) • 5. 96-well equilibrium dialysis plate (HTDialysis LLC, Gales Ferry, CT, HTD96B) and equilibrium dialysis membrane (MWCO 12-14K, 1101) • 6. Positive control compound warfarin • 7. ABI QTrap 5500 liquid chromatography-mass spectrometry
• 1. Preparation of a buffer with a concentration of 100 mM sodium phosphate and 150 mM NaCl: An alkaline solution with a concentration of 14.2 g/L Na2HPO4 and 8.77 g/L NaCl was prepared with ultrapure water, and an acidic solution with a concentration of 12.0 g/L NaH2PO4 and 8.77 g/L NaCl was prepared with ultrapure water. Then the alkaline solution was titrated to pH 7.4 with the acidic solution to prepare a buffer with a concentration of 100 mM sodium phosphate and 150 mM NaCl. • 2. Preparation of dialysis membrane: The dialysis membrane was soaked in ultrapure water for 60 min to separate the membrane into two pieces, then soaked in 20% ethanol for 20 min, and finally soaked in a buffer used for dialysis for 20 min. • 3. Preparation of plasma: The frozen plasma was quickly thawed at room temperature, and then centrifuged at 3220 g for 10 min at 4° C. to remove clots, and the supernatant was collected into a new centrifugal tube. The pH of the plasma was determined and recorded, and the plasma with pH of 7-8 was used. • 4. Preparation of compound-containing plasma samples: The 10 mM stock solution of the compound of the present invention or the positive control compound was diluted with DMSO to obtain a 200 μM working solution. To 597 μl of human or mouse plasma was added 3 μl of 200 μM compound working solution to obtain a plasma sample with a final concentration of 1 μM. • 5. […]
The peak areas of the compound on the buffer side and the plasma side were determined. […]

[2] = target: hERG potassium ion channel (Homo sapiens (Human), UniProt Q12809); assay: hERG inhibitory activity (automated patch clamp, CHO cell line stably expressing hERG); assay type: cell-based
Sequence of hERG potassium ion channel (Q12809 whole entry): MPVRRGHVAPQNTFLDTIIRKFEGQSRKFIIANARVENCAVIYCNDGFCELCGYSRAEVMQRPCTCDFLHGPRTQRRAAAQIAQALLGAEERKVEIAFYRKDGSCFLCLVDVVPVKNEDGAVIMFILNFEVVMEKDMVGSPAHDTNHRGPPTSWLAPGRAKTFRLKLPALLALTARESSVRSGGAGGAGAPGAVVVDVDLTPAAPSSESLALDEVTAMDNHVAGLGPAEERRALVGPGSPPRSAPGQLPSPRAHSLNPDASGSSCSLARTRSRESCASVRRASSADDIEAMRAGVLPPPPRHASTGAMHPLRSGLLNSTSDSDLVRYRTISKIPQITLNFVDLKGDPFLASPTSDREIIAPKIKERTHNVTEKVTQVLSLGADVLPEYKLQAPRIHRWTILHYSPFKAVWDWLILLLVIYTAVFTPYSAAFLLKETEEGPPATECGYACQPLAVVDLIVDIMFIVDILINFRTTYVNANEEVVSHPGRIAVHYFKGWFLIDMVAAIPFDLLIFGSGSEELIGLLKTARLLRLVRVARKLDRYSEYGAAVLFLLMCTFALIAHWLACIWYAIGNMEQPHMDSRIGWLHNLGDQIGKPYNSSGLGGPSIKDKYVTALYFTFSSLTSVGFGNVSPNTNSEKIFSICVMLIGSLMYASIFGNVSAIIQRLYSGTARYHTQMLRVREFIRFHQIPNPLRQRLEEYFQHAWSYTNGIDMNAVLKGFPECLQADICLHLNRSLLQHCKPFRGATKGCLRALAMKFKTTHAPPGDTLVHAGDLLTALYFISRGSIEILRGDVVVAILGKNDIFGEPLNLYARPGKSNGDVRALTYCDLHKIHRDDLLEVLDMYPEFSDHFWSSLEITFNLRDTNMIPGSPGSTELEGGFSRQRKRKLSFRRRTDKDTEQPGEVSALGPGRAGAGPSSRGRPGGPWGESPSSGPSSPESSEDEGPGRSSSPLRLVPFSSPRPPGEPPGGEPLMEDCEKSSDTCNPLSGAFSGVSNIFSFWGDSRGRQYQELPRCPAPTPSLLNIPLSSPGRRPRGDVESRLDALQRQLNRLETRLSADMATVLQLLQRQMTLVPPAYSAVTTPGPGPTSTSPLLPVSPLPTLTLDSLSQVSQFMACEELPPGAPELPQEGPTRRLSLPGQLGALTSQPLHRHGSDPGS
Protocol: The inhibition of hERG activity by the compounds of the present disclosure was determined by the following experimental method.
A CHO cell line stably expressing hERG ion channel was purchased from B′SYS GmbH (Switzerland). The cells were cultured in F-12 (HAM) medium containing 10% FBS buffer, 100 U/mL penicillin-streptomycin, 100 μg/mL hygromycin and 100 μg/mL G418. Trypsin substitute TrypLE™ Express was used for digestion and passage, passaging three times per week and maintaining about 80% confluence.
Iii. Preparation of Intracellular/Extracellular Fluid and Preparation of Solution of Compound to be Tested
• 1) NMDG 60 standard extracellular fluid: 80 mM sodium chloride, 60 mM NMDG, 4 mM potassium chloride, 2 mM calcium chloride, 1 mM magnesium chloride, 5 mM polyglucose, 10 mM HEPES, pH adjusted to 7.4 with HCl, osmotic pressure 289 mOsm/kg; • 2) NMDG 60 cell sealing solution: 80 mM sodium chloride, 60 mM NMDG, 4 mM potassium chloride, 10 mM calcium chloride, 1 mM magnesium chloride, 5 mM polyglucose, 10 mM HEPES, pH adjusted to 7.4 with HCl, osmotic pressure 313 mOsm/kg; • 3) Chip filling solution: 140 mM sodium chloride, 4 mM potassium chloride, 5 mM polyglucose, 10 mM HEPES, pH adjusted to 7.4 with NaOH, osmotic pressure 289 mOsm/kg; • 4) Standard extracellular fluid: 140 mM sodium chloride, 4 mM potassium chloride, 2 mM calcium chloride, 1 mM magnesium chloride, 5 mM polyglucose, 10 mM HEPES, pH adjusted to 7.4 with NaOH, osmotic pressure 298 mOsm/kg.
KF110 intracellular fluid: 10 mM EGTA, 10 mM HEPES, 10 mM potassium chloride, 10 mM sodium chloride, 110 mM potassium fluoride, pH adjusted to 7.2 with KOH, osmotic pressure greater than 280 mOsm/kg.
• 1) The compound to be tested was dissolved in DMSO and prepared into a stock solution with a final concentration of 10 mM. • 2) The stock solution was subjected to gradient dilution with DMSO as a solvent at a ratio of 1:3 into solutions with other three intermediate concentrations (mM): 3.33, 1.11 and 0.37, respectively. • 3) Before the start of the experiment, the gradient solution of the compound to be tested was diluted again with the extracellular fluid according to a ratio of 1:500 into a series of working solutions with final concentrations of: 20, 6.66, 2.22 and 0.74 (μM), respectively, while the 60 μM working solution was diluted from 10 mM stock solution according to a ratio of 3:500. […]

[3] = CD-1 mouse plasma, 1 μM, equilibrium dialysis 6 h, 37° C., read-out: % Mouse plasma protein binding rate (converted)

Row | Structure (SMILES) | fraction unbound at 6 h, 1 μM [1, 3] | IC50 [2] | IC50 ([2]; read-out: hERG potassium ion channel inhibitory activity IC50, CHO-hERG, SyncroPatch 384i, 0.37-30 μM) | fraction unbound at 6 h, 1 μM ([1]; CD-1, mouse, plasma)
1 | CC[C@@]1(O)C(=O)OCc2c1cc1n(c2=O)Cc2c-1nc1cc3c(cc1c2CNC(=O)C(O)C1CC1)OCO3 (single isomer, unassigned) [Compound 14-P1] | 0.363 | > 30 µM | – | –
2 | CC[C@@]1(O)C(=O)OCc2c1cc1n(c2=O)Cc2c-1nc1cc3c(cc1c2CNC(=O)C(O)C1CC1)OCO3 (single isomer, unassigned) [Compound 14-P2] | – | – | > 30 µM | –
3 | CC[C@@]1(O)C(=O)OCc2c1cc1n(c2=O)Cc2c-1nc1cc3c(c(F)c1c2CNC(=O)[C@@H](O)C1CC1)OCO3 (single isomer, unassigned) [Compound 37-P1] | – | > 30 µM | – | 0.327
4 | [2H]C1([2H])Oc2cc3nc4c(c(CNC(=O)C(O)C5CC5)c3cc2O1)Cn1c-4cc2c(c1=O)COC(=O)[C@]2(O)CC (stereo partly drawn) [Compound 39, 2-cyclopropyl-N-(((S)-7-ethyl-7-hydroxy-8,11-dioxo-7,8,11,13-tetrahydro-10H-[1,3]dioxolo[4,5-g]pyrano[3′,4′:6,7]indolizino[1,2-b]quinolin-14-yl-2,2-d2)methyl)-2-hydroxyacetamide] | 0.342 | > 30 µM | – | –
